≈ marks a conversion by molar mass, not a printed value. Where two headings read alike, the source gives them in different places.
Key:
Type in all cases: cell-based
S. epidermidis [1] = assay: MIC of clinical trial isolates, Studies 373, 433, 434; conditions: Staphylococcus epidermidis
Corynebacterium striatum = assay: as above; conditions: N 8
[2] = tested on: baseline pathogens of bacterial conjunctivitis patients; assay: MIC of baseline clinical trial isolates, Studies 373, 433, 434 (all species)
[3] = tested on: Corynebacterium pseudodiphtheriticum; assay: MIC of clinical trial isolates, Studies 373, 433, 434; conditions: N 8
S. pneumoniae [4] = assay: as above; conditions: Streptococcus pneumoniae, all phenotypes, N 302
Protocol: (§1) PFGE testing was performed per standard procedures.
(§2) The antibacterial susceptibility profile of each Visit 1 bacterial isolate was determined for besifloxacin and other antimicrobials.

CDC coryneform group G = assay: as above; conditions: N 29
Protocol: as §1, §2

S. mitis group = assay: as above; conditions: Streptococcus mitis group, N 45
Protocol: as §1, §2

Streptococcus oralis = assay: as above; conditions: N 18
Protocol: as §1, §2

H. influenzae [5] = assay: as above; conditions: Haemophilus influenzae, all phenotypes, N 344
Protocol: as §1, §2

[6] = tested on: Staphylococcus lugdunensis; assay: as above; conditions: N 8
Streptococcus mitis = assay: as above; conditions: Streptococcus mitis (listed separately from S. mitis group), N 20
Protocol: PFGE testing was performed per standard procedures. […] Analysis Populations

S. aureus [7] = assay: as above; conditions: Staphylococcus aureus
Staphylococcus hominis [8] = assay: as above; conditions: N 9
Streptococcus salivarius = assay: as above; conditions: N 9
Klebsiella oxytoca = assay: MIC, CLSI broth microdilution, clinical isolates; conditions: Klebsiella oxytoca (N = 50)
S. epidermidis [9] = assay: MIC and MBC:MIC ratio, recent ocular isolates; conditions: Staphylococcus epidermidis; S. epidermidis (N = 15), recent ocular isolates
Source text: (§3) The success of in vivo antimicrobial action depends to a large extent on the host's defense mechanisms, which ultimately sequester and kill the microorganisms that have been reduced by the bacteriostatic/bactericidal action of the antibacterial agent. Thus, it is also of interest to profile the bactericidal activity of antimicrobial agents. The assessment of in vitro bactericidal activity can be accomplished in multiple ways, for example, the time-kill method or the determination of the minimum bactericidal concentration (MBC). […] Bactericidal agents are characterized by low MBC:MIC ratios.

H. influenzae [10] = assay: MIC and MBC:MIC ratio, recent ocular isolates; conditions: H. influenzae (N = 40), recent ocular isolates
Source text: as §3

S. aureus [11] = assay: MIC and MBC:MIC ratio, recent ocular isolates; conditions: Staphylococcus aureus; S. aureus (N = 30), recent ocular isolates
[12] = tested on: E. coli topoisomerase mutants; assay: MIC against defined topoisomerase mutants; conditions: Escherichia coli
Protocol: Furthermore, an experiment was conducted to assess the mechanism of action of besifloxacin in S. pneumoniae, S. aureus, and E. coli via step selections for isolates with decreased susceptibility to besifloxacin, as well as by testing for altered susceptibilities of ciprofloxacin-resistant variants of all three species containing genetically defined mutations in the quinolone resistance determining regions (QRDRs) of structural genes encoding DNA gyrase and topoisomerase IV (Table 2).

Staphylococcus hominis [13] = assay: MIC, CLSI broth microdilution, clinical isolates; conditions: Staphylococcus hominis (N = 50)
Moraxella catarrhalis = assay: MIC, CLSI broth microdilution, clinical isolates; conditions: Moraxella catarrhalis (N = 101)
S. pneumoniae [14] = assay: MIC and MBC:MIC ratio, recent ocular isolates; conditions: S. pneumoniae (N = 35), recent ocular isolates
Legionella pneumophila = assay: microbe, parasite or virus in culture; conditions: Legionella pneumophila
[15] = tested on: Lancefield group C, F, G streptococci; assay: MIC, CLSI broth microdilution, clinical isolates; conditions: G streptococci (N = 50)
Staphylococcus warneri = assay: MIC, CLSI broth microdilution, clinical isolates; conditions: Staphylococcus warneri (N = 50)
Citrobacter koseri = assay: MIC, CLSI broth microdilution, clinical isolates; conditions: Citrobacter koseri (N = 100)
[16] = tested on: S. aureus topoisomerase mutants; assay: MIC against defined topoisomerase mutants; conditions: Staphylococcus aureus
[17] = tested on: S. pneumoniae topoisomerase mutants; assay: MIC against defined topoisomerase mutants; conditions: Streptococcus pneumoniae
Viridans streptococci = assay: MIC, CLSI broth microdilution, clinical isolates; conditions: Viridans streptococci (N = 156)
Morganella morganii = assay: MIC, CLSI broth microdilution, clinical isolates; conditions: Morganella morganii (N = 51)
[18] = tested on: Staphylococcus haemolyticus; assay: MIC, CLSI broth microdilution, clinical isolates; conditions: Staphylococcus haemolyticus (N = 101)

SMILES: COc1c(N2CCNC(C)C2)c(F)cc2c(=O)c(C(=O)O)cn(C3CC3)c12 (stereo not shown) [GATI]
- MIC50 (S. epidermidis [1]; all phenotypes, N 111): 0.125 µg/mL
- MIC90 (S. epidermidis [1]; all phenotypes, N 111): 2 µg/mL
- MIC50 (Corynebacterium striatum): 0.03 µg/mL
- MIC Range (Corynebacterium striatum): 0.015 to 2 µg/mL
- MIC50 ([2]; All organisms, N 1324): 0.125 µg/mL
- MIC90 ([2]; All organisms, N 1324): 0.5 µg/mL
- MIC50 ([2]; Gram-negative, N 438): 0.015 µg/mL
- MIC90 ([2]; Gram-negative, N 438): 0.25 µg/mL
- MIC Range ([2]; Gram-negative, N 438): ≦0.004-8 μg/mL
- MIC50 ([2]; Gram-positive, N 886): 0.25 µg/mL
- MIC90 ([2]; Gram-positive, N 886): 1 µg/mL
- MIC50 [3]: 0.5 µg/mL
- MIC Range [3]: 0.06 to 0.5 µg/mL
- MIC50 (S. pneumoniae [4]): 0.25 µg/mL
- MIC90 (S. pneumoniae [4]): 0.5 µg/mL
- MIC Range (S. pneumoniae [4]): 0.125 to 1 µg/mL
- MIC50 (CDC coryneform group G): 0.06 µg/mL
- MIC90 (CDC coryneform group G): 0.5 µg/mL
- MIC Range (CDC coryneform group G): 0.03 to 8 µg/mL
- MIC50 (S. mitis group): 0.5 µg/mL
- MIC90 (S. mitis group): 0.5 µg/mL
- MIC Range (S. mitis group): 0.06 to 2 µg/mL
- MIC50 (Streptococcus oralis): 0.5 µg/mL
- MIC90 (Streptococcus oralis): 1 µg/mL
- MIC Range (Streptococcus oralis): 0.03 to 1 µg/mL
- MIC50 (H. influenzae [5]): 0.015 µg/mL
- MIC90 (H. influenzae [5]): 0.03 µg/mL
- MIC Range (H. influenzae [5]): ≦0.004-0.5 μg/mL
- MIC50 [6]: 0.25 µg/mL
- MIC Range [6]: 0.25 to 2 µg/mL
- MIC50 (Streptococcus mitis): 0.5 µg/mL
- MIC90 (Streptococcus mitis): 1 µg/mL
- MIC Range (Streptococcus mitis): 0.25 to 1 µg/mL
- MIC50 (S. aureus [7]; all phenotypes, N 190): 0.125 µg/mL
- MIC90 (S. aureus [7]; all phenotypes, N 190): 4 µg/mL
- MIC50 (Staphylococcus hominis [8]): 0.125 µg/mL
- MIC Range (Staphylococcus hominis [8]): 0.06 to 2 µg/mL
- MIC50 (Streptococcus salivarius): 0.5 µg/mL
- MIC Range (Streptococcus salivarius): 0.5 to 2 µg/mL

SMILES: COc1c(N2C[C@@H]3CCCN[C@@H]3C2)c(F)cc2c(=O)c(C(=O)O)cn(C3CC3)c12 [Moxifloxacin]
- MIC50 (Klebsiella oxytoca): 0.06 µg/mL (≈ 0.149 µM)
- MIC90 (Klebsiella oxytoca): 2 µg/mL (≈ 4.98 µM)
- MIC Range (Klebsiella oxytoca): 0.03 to 8 µg/mL
- MIC50 (S. epidermidis [9]): 0.06 µg/mL
- MIC90 (S. epidermidis [9]): > 8 µg/mL
- MIC Range (H. influenzae [10]): 0.008 to 0.03 µg/mL
- MIC50 (H. influenzae [10]; Haemophilus influenzae): 0.015 µg/mL
- MIC90 (H. influenzae [10]; Haemophilus influenzae): 0.03 µg/mL
- MIC50 (S. aureus [11]): 0.06 µg/mL
- MIC90 (S. epidermidis [1]; MRSE, S. epidermidis MRSE-CR, N 24, read-out: MIC90): > 8 µg/mL
- MIC90 (S. epidermidis [1]; S. epidermidis MSSE-CR, N 10, read-out: MIC90): 8 µg/mL
- MIC ([12]; E. coli Wild type): 0.06 µg/mL (≈ 0.149 µM)
- MIC ([12]; E. coli gyrA D87Y (or S83L)): 0.5 µg/mL (≈ 1.25 µM)
- MIC ([12]; E. coli gyrA S83L + parC S80R): 4 µg/mL
- MIC ([12]; E. coli gyrA S83L + parE H445L): 0.5 µg/mL
- MIC ([12]; E. coli gyrB D426N): 0.12 µg/mL (≈ 0.299 µM)
- MIC90 ([2]; clinical isolates from Asia): 2 µg/mL
- MIC50 (Staphylococcus hominis [13]): 1 µg/mL (≈ 2.49 µM)
- MIC90 (Staphylococcus hominis [13]): 4 µg/mL (≈ 9.96 µM)
- MIC50 (Moraxella catarrhalis): 0.03 µg/mL (≈ 0.0747 µM)
- MIC90 (Moraxella catarrhalis): 0.03 µg/mL (≈ 0.0747 µM)
- MIC Range (Moraxella catarrhalis): 0.015 to 0.12 µg/mL
- MIC Range (S. pneumoniae [14]): 0.03 to 2 µg/mL
- MIC50 (S. pneumoniae [14]; Streptococcus pneumoniae): 0.06 µg/mL
- MIC90 (S. pneumoniae [14]; Streptococcus pneumoniae): 0.12 µg/mL
- MIC50 (Legionella pneumophila): 0.03 µg/mL (≈ 0.0747 µM)
- MIC90 (Legionella pneumophila): 0.06 µg/mL (≈ 0.149 µM)
- MIC Range [15]: 0.03 to 1 µg/mL
- MIC50 ([15]; read-out: MIC50): 0.12 µg/mL (≈ 0.299 µM)
- MIC90 ([15]; read-out: MIC90): 0.12 µg/mL (≈ 0.299 µM)
- MIC50 (Staphylococcus warneri): 0.06 µg/mL (≈ 0.149 µM)
- MIC90 (Staphylococcus warneri): 4 µg/mL (≈ 9.96 µM)
- MIC50 (Citrobacter koseri): 0.03 µg/mL (≈ 0.0747 µM)
- MIC ([16]; S. aureus Wild type): 0.06 µg/mL (≈ 0.149 µM)
- MIC ([16]; S. aureus parC S80F (or E84K)): 0.5 µg/mL (≈ 1.25 µM)
- MIC ([16]; S. aureus parC S80F + gyrA S84L): 2 µg/mL
- MIC ([17]; S. pneumoniae Wild type): 0.25 µg/mL (≈ 0.623 µM)
- MIC ([17]; S. pneumoniae gyrA S81F): 0.5 µg/mL (≈ 1.25 µM)
- MIC ([17]; S. pneumoniae parC S79Y): 0.25 µg/mL (≈ 0.623 µM)
- MIC ([17]; S. pneumoniae parC S79Y + gyrA S81F): 4 µg/mL
- MIC Range (Viridans streptococci): 0.03 to 4 µg/mL
- MIC50 (Viridans streptococci; read-out: MIC50): 0.12 µg/mL (≈ 0.299 µM)
- MIC90 (Morganella morganii): > 8 µg/mL
- MIC50 [18]: 1 µg/mL (≈ 2.49 µM)
- MIC90 [18]: 8 µg/mL (≈ 19.9 µM)
- MIC90 (S. aureus [7]; MRSA, S. aureus MRSA-CS, N 9, read-out: MIC90 (due to limited isolates, highest MIC value is given)): 0.06 µg/mL
